Data as given in US8846719B2, “Isoxazolo-pyridine derivatives” (Roche Palo Alto LLC, priority 2007, dated 2014).
pKi: −log10 of the molar value.

Biological target: human GABA A receptor α5β3γ2 (Homo sapiens (Human), UniProt P18507+P31644)
Assay: [3H]flumazenil competition binding assay, human GABA A α5β3γ2 receptors expressed in HEK293 cells
Conditions: human receptor; displacement of [3H]flumazenil (0.5 nM); means of two determinations; read-out: hKi GABAAa5
In short: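 Competition for [3H]flumazenil binding on membranes of HEK293 cells transiently transfected with human α5β3γ2 receptors, in Krebs-tris buffer pH 7.5.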

In the case of `Cc1cc(C(=O)NC(C)C)cnc1OCc1c(-c2ccccc2)noc1C` [Example 69, N-Isopropyl-5-methyl-6-(5-methyl-3-phenyl-isoxazol-4-ylmethoxy)-nicotinamide], the pKi was 8.53.

`Cc1onc(-c2ccccc2)c1COc1ccc(C(=O)N(C)C(C)C)cn1` [Example 70, N-Isopropyl-N-methyl-6-(5-methyl-3-phenyl-isoxazol-4-ylmethoxy)-nicotinamide] gave a pKi of 7.27.

`Cc1onc(-c2ccccc2)c1COc1ccc(C(=O)N2CCOCC2(C)C)cn1` [Example 71, (3,3-Dimethyl-morpholin-4-yl)-[6-(5-methyl-3-phenyl-isoxazol-4-ylmethoxy)-pyridin-3-yl]-methanone] gave a pKi of 7.09.

`CCOC(=O)c1ccc(OCc2c(-c3ccccc3)noc2C)nc1C` [Example 72, 2-Methyl-6-(5-methyl-3-phenyl-isoxazol-4-ylmethoxy)-nicotinic acid ethyl ester] was tested, and the pKi was 7.71.

Work on `Cc1onc(-c2ccccc2)c1COc1cccc(C#N)n1` [Example 73, 6-(5-Methyl-3-phenyl-isoxazol-4-ylmethoxy)-pyridine-2-carbonitrile] yielded a pKi of 7.68.

Work on `Cc1onc(-c2ccccc2)c1COc1ccc(C2(O)COC2)cn1` [Example 74, 3-[6-(5-Methyl-3-phenyl-isoxazol-4-ylmethoxy)-pyridin-3-yl]-oxetan-3-ol] yielded a pKi of 7.55.

With `Cc1onc(-c2ccccc2)c1COc1ccc(C(=O)NCC2CCCOC2)cn1` (stereo not shown) [Example 76, 6-(5-Methyl-3-phenyl-isoxazol-4-ylmethoxy)-N-(tetrahydro-pyran-3-ylmethyl)-nicotinamide] the pKi was 7.93.

Compound `Cc1onc(-c2ccccc2)c1COc1ccc(C(=O)NCC2CCOC2)cn1` (stereo not shown) [Example 77, 6-(5-Methyl-3-phenyl-isoxazol-4-ylmethoxy)-N-(tetrahydro-furan-3-ylmethyl)-nicotinamide] has a pKi of 8.34.

`Cc1onc(-c2ccccc2)c1COc1ccc(C(=O)N2CCCn3nccc32)cn1` [Example 78, (6,7-Dihydro-5H-pyrazolo[1,5-a]pyrimidin-4-yl)-[6-(5-methyl-3-phenyl-isoxazol-4-ylmethoxy)-pyridin-3-yl]-methanone] showed a pKi of 7.39.

With `Cc1onc(-c2ccccc2)c1COc1ccc(C(=O)NC2COCc3ccccc32)cn1` (stereo not shown) [Example 79, N-Isochroman-4-yl-6-(5-methyl-3-phenyl-isoxazol-4-ylmethoxy)-nicotinamide] the pKi was 7.17.

Work on `Cc1onc(-c2ccccc2)c1COc1ccc(C(=O)NCc2cc(C(C)C)no2)cn1` [Example 80, N-(3-Isopropyl-isoxazol-5-ylmethyl)-6-(5-methyl-3-phenyl-isoxazol-4-ylmethoxy)-nicotinamide] yielded a pKi of 7.35.

Work on `Cc1onc(-c2ccccc2)c1COc1ccc(C(=O)N2CCC23COC3)cn1` [Example 82, [6-(5-Methyl-3-phenyl-isoxazol-4-ylmethoxy)-pyridin-3-yl]-(6-oxa-1-aza-spiro[3.3]hept-1-yl)-methanone] yielded a pKi of 7.77.

`Cc1onc(-c2ccccc2)c1COc1ccc(C(=O)OC(C)C)cn1` [Example 83, 6-(5-Methyl-3-phenyl-isoxazol-4-ylmethoxy)-nicotinic acid isopropyl ester] was tested, and the pKi was 8.33.

Compound `Cc1onc(-c2ccccc2F)c1COc1ccc(C(=O)NCC(F)(F)F)cn1` [Example 84, 6-[3-(2-Fluoro-phenyl)-5-methyl-isoxazol-4-ylmethoxy]-N-(2,2,2-trifluoro-ethyl)-nicotinamide] has a pKi of 8.35.

For `Cc1onc(-c2ccccc2F)c1COc1ccc(C(=O)NCC(F)(F)C(F)(F)F)cn1` [Example 85, 6-[3-(2-Fluoro-phenyl)-5-methyl-isoxazol-4-ylmethoxy]-N-(2,2,3,3,3-pentafluoro-propyl)-nicotinamide], the pKi was 8.01.

`Cc1onc(-c2ccccc2F)c1COc1ccc(C(=O)NC(C)C)cn1` [Example 86, 6-[3-(2-Fluoro-phenyl)-5-methyl-isoxazol-4-ylmethoxy]-N-isopropyl-nicotinamide] was tested, and the pKi was 8.44.

For `Cc1onc(-c2ccccc2F)c1COc1ccc(C(=O)NC2CCOCC2)cn1` [Example 87, 6-[3-(2-Fluoro-phenyl)-5-methyl-isoxazol-4-ylmethoxy]-N-(tetrahydro-pyran-4-yl)-nicotinamide], the pKi was 8.34.

Compound `COC(=O)c1ccc(OCc2c(-c3cccc(F)c3)noc2C)nc1` [Example 88, 6-[3-(3-Fluoro-phenyl)-5-methyl-isoxazol-4-ylmethoxy]-nicotinic acid methyl ester] has a pKi of 7.76.

With `Cc1onc(-c2cccc(F)c2)c1COc1ccc(C(=O)NCC(F)(F)F)cn1` [Example 89, 6-[3-(3-Fluoro-phenyl)-5-methyl-isoxazol-4-ylmethoxy]-N-(2,2,2-trifluoro-ethyl)-nicotinamide] the pKi was 8.52.

`Cc1onc(-c2cccc(F)c2)c1COc1ccc(C(=O)NCC2CC2)cn1` [Example 90, N-Cyclopropylmethyl-6-[3-(3-fluoro-phenyl)-5-methyl-isoxazol-4-ylmethoxy]-nicotinamide] gave a pKi of 8.49.

`Cc1onc(-c2cccc(F)c2)c1COc1ccc(C(=O)NC(C)C)cn1` [Example 91, 6-[3-(3-Fluoro-phenyl)-5-methyl-isoxazol-4-ylmethoxy]-N-isopropyl-nicotinamide] gave a pKi of 8.64.

`Cc1onc(-c2cccc(F)c2)c1COc1ccc(C(=O)NC2CC2)cn1` [Example 92, N-Cyclopropyl-6-[3-(3-fluoro-phenyl)-5-methyl-isoxazol-4-ylmethoxy]-nicotinamide] was tested, and the pKi was 7.38.

`Cc1onc(-c2cccc(F)c2)c1COc1ccc(C(=O)NC2CCOCC2)cn1` [Example 93, 6-[3-(3-Fluoro-phenyl)-5-methyl-isoxazol-4-ylmethoxy]-N-(tetrahydro-pyran-4-yl)-nicotinamide] showed a pKi of 8.77.

`Cc1onc(-c2cccc(F)c2)c1COc1ccc(C(=O)N2CCOCC2)cn1` [Example 94, {6-[3-(3-Fluoro-phenyl)-5-methyl-isoxazol-4-ylmethoxy]-pyridin-3-yl}-morpholin-4-yl-methanone] gave a pKi of 7.32.

`Cc1onc(-c2cccc(F)c2)c1COc1ccc(C(=O)N2CCSCC2)cn1` [Example 95, {6-[3-(3-Fluoro-phenyl)-5-methyl-isoxazol-4-ylmethoxy]-pyridin-3-yl}-thiomorpholin-4-yl-methanone] was tested, and the pKi was 7.34.

With `Cc1onc(-c2cccc(F)c2)c1COc1ccc(C(=O)N2CCS(=O)(=O)CC2)cn1` [Example 96, (1,1-Dioxo-1λ6-thiomorpholin-4-yl)-{6-[3-(3-fluoro-phenyl)-5-methyl-isoxazol-4-ylmethoxy]-pyridin-3-yl}-methanone] the pKi was 7.87.

In the case of `COC(=O)c1ccc(OCc2c(-c3cccc(Cl)c3)noc2C)nc1` [Example 97, 6-[3-(3-Chloro-phenyl)-5-methyl-isoxazol-4-ylmethoxy]-nicotinic acid methyl ester], the pKi was 7.56.

`Cc1onc(-c2cccc(Cl)c2)c1COc1ccc(C(=O)NCC(F)(F)F)cn1` [Example 98, 6-[3-(3-Chloro-phenyl)-5-methyl-isoxazol-4-ylmethoxy]-N-(2,2,2-trifluoro-ethyl)-nicotinamide] showed a pKi of 8.11.

`Cc1onc(-c2cccc(Cl)c2)c1COc1ccc(C(=O)NCC2CC2)cn1` [Example 99, 6-[3-(3-Chloro-phenyl)-5-methyl-isoxazol-4-ylmethoxy]-N-cyclopropylmethyl-nicotinamide] was tested, and the pKi was 8.09.

In the case of `Cc1onc(-c2cccc(Cl)c2)c1COc1ccc(C(=O)NC2CC2)cn1` [Example 100, 6-[3-(3-Chloro-phenyl)-5-methyl-isoxazol-4-ylmethoxy]-N-cyclopropyl-nicotinamide], the pKi was 8.12.

Compound `Cc1onc(-c2cccc(Cl)c2)c1COc1ccc(C(=O)NC2CCOCC2)cn1` [Example 101, 6-[3-(3-Chloro-phenyl)-5-methyl-isoxazol-4-ylmethoxy]-N-(tetrahydro-pyran-4-yl)-nicotinamide] has a pKi of 8.41.

For `Cc1onc(-c2cccc(Cl)c2)c1COc1ccc(C(=O)N2CCS(=O)(=O)CC2)cn1` [Example 102, {6-[3-(3-Chloro-phenyl)-5-methyl-isoxazol-4-ylmethoxy]-pyridin-3-yl}-(1,1-dioxo-1λ6-thiomorpholin-4-yl)-methanone], the pKi was 7.71.

Compound `COC(=O)c1ccc(OCc2c(-c3ccc(F)cc3)noc2C)nc1` [Example 103, 6-[3-(4-Fluoro-phenyl)-5-methyl-isoxazol-4-ylmethoxy]-nicotinic acid methyl ester] has a pKi of 7.79.

Compound `Cc1onc(-c2ccc(F)cc2)c1COc1ccc(C(=O)O)cn1` [Example 104, 6-[3-(4-Fluoro-phenyl)-5-methyl-isoxazol-4-ylmethoxy]-nicotinic acid] has a pKi of 7.40.

`Cc1onc(-c2ccc(F)cc2)c1COc1ccc(C(=O)NCC(F)(F)F)cn1` [Example 105, 6-[3-(4-Fluoro-phenyl)-5-methyl-isoxazol-4-ylmethoxy]-N-(2,2,2-trifluoro-ethyl)-nicotinamide] gave a pKi of 8.92.

`Cc1onc(-c2ccc(F)cc2)c1COc1ccc(C(=O)NCC2CC2)cn1` [Example 106, N-Cyclopropylmethyl-6-[3-(4-fluoro-phenyl)-5-methyl-isoxazol-4-ylmethoxy]-nicotinamide] was tested, and the pKi was 8.82.

`Cc1onc(-c2ccc(F)cc2)c1COc1ccc(C(=O)NC(C)C)cn1` [Example 107, 6-[3-(4-Fluoro-phenyl)-5-methyl-isoxazol-4-ylmethoxy]-N-isopropyl-nicotinamide] showed a pKi of 9.15.

For `Cc1onc(-c2ccc(F)cc2)c1COc1ccc(C(=O)NC2CC2)cn1` [Example 108, N-Cyclopropyl-6-[3-(4-fluoro-phenyl)-5-methyl-isoxazol-4-ylmethoxy]-nicotinamide], the pKi was 8.96.

In the case of `Cc1onc(-c2ccc(F)cc2)c1COc1ccc(C(=O)NC2CCOCC2)cn1` [Example 109, 6-[3-(4-Fluoro-phenyl)-5-methyl-isoxazol-4-ylmethoxy]-N-(tetrahydro-pyran-4-yl)-nicotinamide], the pKi was 9.10.

`Cc1onc(-c2ccc(F)cc2)c1COc1ccc(C(=O)N2CCOCC2)cn1` [Example 110, {6-[3-(4-Fluoro-phenyl)-5-methyl-isoxazol-4-ylmethoxy]-pyridin-3-yl}-morpholin-4-yl-methanone] gave a pKi of 7.89.
